Data set [1] in a line: Half life of the compound in fluka 82567 buffer at pH 7 by HPLC analysis. Type of data set: physicochemical.
Data set [2] is described as follows: Half life of the compound in fluka 82564 buffer at pH 2 by HPLC analysis. Type of data set: physicochemical.
Data set [3] has as its system Human immunodeficiency virus 1. Nature of the data set: Antiviral activity against HIV-1 3B infected in human CEM cells assessed as HIV-induced host giant cell formation after 4 days by microscopic analysis. The note with it: Human immunodeficiency virus 1, 3B, CCRF-CEM, 96 h. Type of data set: functional, organism-based.
Data set [4] is described as follows: Cytotoxicity against human HEL cells. Type of data set: cell-based.
Data set [5] can be described thus: Stability of the compound at -20 degC assessed as compound degradation after 4 months by HPLC analysis. In kind it is physicochemical. To be noted: 2922 h.
The test system of another data set is Human betaherpesvirus 5. Kind of data set: Antiviral activity against Cytomegalovirus AD-169 infected in HEL cells assessed as inhibition of virus-induced cytopathicity. Type of data set: functional, organism-based. To be noted: Human betaherpesvirus 5, AD169, HEL. In general terms: Protection from cytopathic effect is a common read-out in antiviral testing.

A short description of data set [6]: Cytotoxicity against cat CRFK cells. Type of data set: cell-based, Felis catus.
Data set [7] concerns Human alphaherpesvirus 3. Kind of data set: Antiviral activity against Varicellla-zoster virus 07-1 infected in HEL cells assessed as inhibition of virus-induced cytopathicity. Type of data set: functional, organism-based. To be noted: Human alphaherpesvirus 3, 07-1, HEL.
For the next data set, the system named is Vaccinia virus. Nature of the data set: Antiviral activity against Vaccinia virus Lederle infected in HEL cells assessed as inhibition of virus-induced cytopathicity. In kind it is functional, organism-based. To be noted: Orthopoxvirus vaccinia.
The subject of data set [8] is Vesicular stomatitis virus. Nature of the data set: Antiviral activity against Vesicular somatitis virus infected in HEL cells assessed as inhibition of virus-induced cytopathicity. In kind it is functional, organism-based.
The subject of another data set is Felid alphaherpesvirus 1. Kind of data set: Antiviral activity against Feline herpesvirus in cat CrFK cells assessed as plaque formation. In kind it is functional, organism-based. The note with it: Felid alphaherpesvirus 1, CRFK.
Data set [9] is described as follows: Stability of the compound in fluka 82571 buffer at pH 5 assessed as compound degradation after 2 days by HPLC analysis. In kind it is physicochemical. To be noted: pH 5, 48 h.
The nature of data set [10]: Stability of the compound in fluka 82567 buffer at pH 7 assessed as compound degradation after 2 days by HPLC analysis. Type of data set: physicochemical. To be noted: pH 7, 48 h.
For another data set, the system named is CCRF-CEM. Kind of data set: Cytotoxicity against human CEM cells. In kind it is cell-based.
For data set [11], the system named is Human alphaherpesvirus 1. Nature of the data set: Antiviral activity against HSV-1 KOS infected in HEL cells assessed as inhibition of virus-induced cytopathicity. In kind it is functional, organism-based. The note with it: Human alphaherpesvirus 1, KOS.
The test system of a further data set is L1210. Nature of the data set: Cytotoxicity against mouse L1210 cells. In kind it is cell-based.
In data set [12] the test system is Human alphaherpesvirus 1. Kind of data set: Antiviral activity against thymidine kinase-deficient ACV-resistant HSV-1 KOS infected in HEL cells assessed as inhibition of virus-induced cytopathicity. In kind it is functional, organism-based. To be noted: Human alphaherpesvirus 1, KOS.
In data set [13] the test system is Human immunodeficiency virus 2. Nature of the data set: Antiviral activity against HIV-2 ROD infected in human CEM cells assessed as HIV-induced host giant cell formation after 4 days by microscopic analysis. In kind it is functional, organism-based. The note with it: Human immunodeficiency virus 2, ISOLATE ROD, CCRF-CEM, 96 h.
Another data set deals with Human alphaherpesvirus 2. Nature of the data set: Antiviral activity against HSV-2 G infected in HEL cells assessed as inhibition of virus-induced cytopathicity. Type of data set: functional, organism-based. The note with it: Human alphaherpesvirus 2, strain G.
The next data set concerns Cytomegalovirus. Kind of data set: Antiviral activity against Cytomegalovirus Davis infected in HEL cells assessed as inhibition of virus-induced cytopathicity. In kind it is functional, organism-based. To be noted: Human betaherpesvirus 5, Davis.
The test system of data set [14] is Human alphaherpesvirus 3. Kind of data set: Antiviral activity against Varicellla-zoster virus Oka infected in HEL cells assessed as inhibition of virus-induced cytopathicity. Type of data set: functional, cell-based. The note with it: Human alphaherpesvirus 3, strain Oka vaccine.
In the next data set the test system is Feline coronavirus. Kind of data set: Antiviral activity against Feline coronavirus in cat CrFK cells assessed as plaque formation. In kind it is functional, organism-based. The note with it: Alphacoronavirus 1, CRFK.

For `C[C@H](NP(=O)(Oc1ccccc1)O[C@H]1O[C@H](CO)[C@@H](O)[C@@H]1F)C(=O)OC1CCCCC1` (stereo not given in full), the results for the t1/2 in [1] and in data set [2] were 2 h and 1.07 h, respectively.

`C[C@H](NP(=O)(Oc1ccccc1)O[C@H]1O[C@H](CO)[C@@H](O)C1(F)F)C(=O)OC1CCCCC1` (mixture of isomers): the concentration for a half-maximal effect (EC50) in data set [3] was more than 250 µM; in the data set with Human betaherpesvirus 5 it was more than 20 µM; in the data set on Human alphaherpesvirus 3 [7] it was more than 20 µM; with Vaccinia virus, more than 20 µM; in data set [8] it was more than 20 µM; in the data set on Felid alphaherpesvirus 1, more than 20 µM. The 50% effective concentration (EC50) is more than 20 µM in the data set on Human alphaherpesvirus 1 [11]; more than 20 µM with Human alphaherpesvirus 1 [12]; more than 250 µM in data set [13]; more than 20 µM with Human alphaherpesvirus 2; more than 20 µM in the data set with Cytomegalovirus; more than 20 µM in the data set with Human alphaherpesvirus 3 [14]. For the same molecule, in the data set on Feline coronavirus, the concentration for a half-maximal effect (EC50) was more than 20 µM. In data set [4], the MCC was not below 100 µM. In addition, the Stability entry in data set [5], in data set [9] and in data set [10] was “Stable” each time. This molecule registered a CC50 in data set [6] of more than 100 µM. Further, the IC50 in the data set on CCRF-CEM and in the data set with L1210 was more than 30 µM in each case.

With `C[C@H](NP(=O)(Oc1ccccc1)O[C@@H]1O[C@H](CO)[C@@H](O)C1(F)F)C(=O)OCC(C)(C)C` (mixture of isomers), the EC50 in data set [3] was more than 250 µM; in the data set on Human betaherpesvirus 5 it was more than 20 µM; in the data set with Human alphaherpesvirus 3 [7], more than 20 µM; in the data set on Vaccinia virus, more than 20 µM; in data set [8] it was more than 20 µM; in the data set on Felid alphaherpesvirus 1 it was more than 20 µM. Also, the EC50 with Human alphaherpesvirus 1 [11] is more than 20 µM; in the data set with Human alphaherpesvirus 1 [12], more than 20 µM; in [13] it was more than 250 µM; with Human alphaherpesvirus 2, more than 20 µM; in the data set with Cytomegalovirus, more than 20 µM; in the data set on Human alphaherpesvirus 3 [14], more than 20 µM. In addition, in the data set on Feline coronavirus, the concentration for a half-maximal effect (EC50) is more than 20 µM. The MCC in [4] was not below 100 µM. The same molecule showed a CC50 in [6] of more than 100 µM. The IC50 with CCRF-CEM and with L1210 was more than 30 µM in each case.

For the molecule `COC(=O)[C@H](C)NP(=O)(Oc1ccccc1)O[C@@H]1O[C@H](CO)[C@@H](O)C1(F)F` (mixture of isomers), the EC50 in data set [3] was more than 250 µM; with Human betaherpesvirus 5, more than 20 µM; in the data set with Human alphaherpesvirus 3 [7], more than 20 µM; in the data set with Vaccinia virus, more than 20 µM; in data set [8], more than 20 µM; in the data set with Felid alphaherpesvirus 1, more than 20 µM. Moreover, the EC50 in the data set with Human alphaherpesvirus 1 [11] was more than 20 µM; with Human alphaherpesvirus 1 [12], more than 20 µM; in data set [13], more than 250 µM; with Human alphaherpesvirus 2 it was more than 20 µM; in the data set on Cytomegalovirus, more than 20 µM; in the data set on Human alphaherpesvirus 3 [14], more than 20 µM. For the same molecule, in the data set on Feline coronavirus, the half-maximal effective concentration (EC50) was more than 20 µM. This molecule showed an MCC in [4] not below 100 µM. Also, the CC50 in data set [6] was more than 100 µM. Moreover, the concentration for half-maximal inhibition (IC50) in the data set on CCRF-CEM and in the data set with L1210 was more than 30 µM each time.

For the molecule `COC(=O)[C@@H](NP(=O)(Oc1ccccc1)O[C@@H]1O[C@H](CO)[C@@H](O)C1(F)F)C(C)C` (mixture of isomers), the EC50 is more than 250 µM in data set [3]; more than 20 µM in the data set with Human betaherpesvirus 5; more than 20 µM in the data set on Human alphaherpesvirus 3 [7]; more than 20 µM with Vaccinia virus; more than 20 µM in data set [8]; more than 20 µM with Felid alphaherpesvirus 1. Moreover, the EC50 is more than 20 µM with Human alphaherpesvirus 1 [11]; more than 20 µM with Human alphaherpesvirus 1 [12]; more than 250 µM in data set [13]; more than 20 µM in the data set on Human alphaherpesvirus 2; more than 20 µM in the data set on Cytomegalovirus; more than 20 µM in the data set on Human alphaherpesvirus 3 [14]. Besides, the concentration for a half-maximal effect (EC50) with Feline coronavirus was more than 20 µM. Further, the MCC in data set [4] is not below 100 µM. In addition, in data set [6], the half-maximal cytotoxic concentration (CC50) was more than 100 µM. The IC50 in the data set on CCRF-CEM and in the data set on L1210 was more than 30 µM in each case.

`COC(=O)[C@@H](NP(=O)(Oc1cccc2ccccc12)O[C@@H]1O[C@H](CO)[C@@H](O)C1(F)F)C(C)C` (mixture of isomers): the EC50 in data set [3] was more than 50 µM; in the data set on Human betaherpesvirus 5 it was more than 20 µM; in the data set on Human alphaherpesvirus 3 [7], more than 20 µM; with Vaccinia virus, more than 20 µM; in data set [8], more than 20 µM; in the data set with Felid alphaherpesvirus 1, more than 20 µM. Besides, the EC50 with Human alphaherpesvirus 1 [11] is more than 20 µM; in the data set with Human alphaherpesvirus 1 [12], more than 20 µM; in [13], more than 50 µM; in the data set with Human alphaherpesvirus 2, more than 20 µM; in the data set on Cytomegalovirus, more than 20 µM; in the data set on Human alphaherpesvirus 3 [14], more than 20 µM. Moreover, the EC50 in the data set with Feline coronavirus was more than 20 µM. The MCC in data set [4] is not below 100 µM. The same molecule registered a half-maximal cytotoxic concentration (CC50) in data set [6] of more than 100 µM. For the same molecule, the IC50 with CCRF-CEM and in the data set on L1210 was more than 30 µM in each case.

The EC50 is the concentration giving half of the maximal effect. For orientation: CC50 means the concentration giving 50% cytotoxicity. One may read the IC50 as the concentration at which inhibition is half-maximal. A low value points to inhibition by little substance.
